Results published in PubChem BioAssay (NCI).
Several values for one entry are separate records, joined by “and”; a condition that tells them apart may be missing. Equal values may be shown once.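 Grown in 96-well plates, cells were treated for 48 hours with each compound at five concentrations. Insufficient inhibition: endpoint recorded as highest concentration tested. GI50 is the concentration that inhibits growth by half. TGI denotes the concentration required for complete inhibition of growth.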 *1 amine or outer side, *2 acyl side, *3 side chain or, on linkers, in order; H or OH if unused. Where a SMILES comes first, the peptide text is derived from it. Bridges are numbered along the chain shown (N, C = ends). Roman numbers before positions name the chains, in order. [ ]: non-standard residue; d: D form. Actinocin(9to1) = Cc1c2oc3c(C)ccc(C(=O)[*:1])c3nc-2c(C(=O)[*:2])c(N)c1=O; Hyp = O=C(O)[CH]1C[CH](O)CN1; NMeV = CN[CH](C(=O)O)C(C)C; Sar = CNCC(=O)O

Experiments:
Assay in all cases: NCI anticancer screen, dose series, 48 h
NCI-H226 lung = tested on: NCI-H226 lung
SF-539 CNS = tested on: SF-539 CNS
DU-145 prostate = tested on: DU-145 prostate
DLD-1 colon = tested on: DLD-1 colon
DMS 114 small cell lung = tested on: DMS 114 small cell lung
DMS 273 small cell lung = tested on: DMS 273 small cell lung
LXFL 529 NSCLC = tested on: LXFL 529 NSCLC
M19-MEL melanoma = tested on: M19-MEL melanoma
KM20L2 colon = tested on: KM20L2 colon
XF 498 CNS = tested on: XF 498 CNS

Compound	TGI (NCI-H226 lung)	TGI (SF-539 CNS)	TGI (DU-145 prostate) [µM]	also measured
COc1ccc(-c2ncn(C[Si](C)(C)C)c2-c2ccc(OC)cc2)cc1	24.5 µM	27.5 µM		
Cc1ccc(-c2cc[n+]3c(n2)oc2ccccc23)cc1		58.6 µM	> 100	
O=c1[nH]c2nccn2c2c1SCCN2	> 100 µM	> 100 µM	> 100	
Cc1cc2n[n+]3[n-]cc(-c4ccccc4)n3c2cc1[N+](=O)[O-]		> 100 µM	> 100	
O=C(N/N=C\c1cccc2ccccc12)Nc1cccc2ccccc12	> 100 µM	42.1 µM	> 100	
CCN(CC)CC1CN=C(N)O1 (stereo unspecified)	> 100 µM	> 100 µM	> 100	
CC1SC2(CCCCC2)N(NC(=O)CSc2nc3ccc(Cl)cc3c(=O)n2-c2ccccc2)C1=O (stereo unspecified)		33 µM	85.8	
COC(=O)c1ccccc1/C=C1\Cc2ccc3c(c2C1=O)CCCC3	> 100 µM	> 100 µM	> 100	
CCCCCCCCCCCCCCCCCCNC(=S)/N=C/c1c(O)c2ccccc2[nH]c1=O	63.3 µM	43.1 µM	29.7	
O=C1CC(=O)NC(=NN2C(=O)CSC2C(=O)c2ccco2)N1 (stereo unspecified)	> 100 µM	> 100 µM	> 100	
Cc1nc2c(cc1OCc1ccccc1)C(=O)C1=C(C2=O)C2OC(=O)CC2OC1(C)C (stereo unspecified)	2.98 µM	2.04 µM	3.09	
COC(=O)C1CCC(=O)N1C(c1cc(OC)c(OC)c(OC)c1)c1cccc2ccccc12 (stereo unspecified)	> 100 µM	> 100 µM	> 100	
C=CCOC(=O)N1c2ccc(O)cc2[C@@]23O[C@@]24[C@@H]1C#C/C=C\C#C[C@]3(O)C(OC)(OC)C[C@@H]4C	74.3 µM	40.6 µM	> 100	
CCOC(=O)CCN1C(=O)C(=O)N(c2ccc(OC)cc2)C1=S	> 100 µM	> 100 µM	> 100	
COC(=O)C(Cc1c[nH]c2ccccc12)NP(=O)(O)OCC1OC(n2cc(Br)c(=O)[nH]c2=O)CC1O (stereo unspecified)	> 100 µM	> 100 µM	> 100	
COc1cc(C2C3=C(CCCC3=O)N(c3ccc(C)cc3)C3=C2C(=O)CCC3)c([N+](=O)[O-])cc1OC	> 100 µM	> 100 µM		
Cc1c2oc3c(C)ccc(C(=O)NC4C(=O)NC(C(C)C)C(=O)N5CC(O)CC5C(=O)N(C)CC(=O)N(C)C(C(C)C)C(=O)OC4C)c3nc-2c(C(=O)NC2C(=O)NC(C(C)C)C(=O)N3CC(O)CC3C(=O)N(C)CC(=O)N(C)C(C(C)C)C(=O)OC2C)c(N)c1=O (stereo unspecified) (I: TV[Hyp][Sar][NMeV] / II: TV[Hyp][Sar][NMeV]; ester I:1-I:C, II:1-II:C; linker I:N-II:N via Actinocin(9to1); configuration not given here)	> 1 µM	> 1 µM	> 1	
CCN(CC)c1ccc(/C=C2\CCc3ccc([N+](=O)[O-])cc3C2=O)cc1	> 100 µM	7.09 µM	> 100	
O=C(OC1CN2CCC1CC2)N(c1ccccc1)c1ccccc1 (stereo unspecified)	> 100 µM	> 100 µM	> 100	

Compound	TGI (NCI-H226 lung)	TGI (SF-539 CNS)	TGI (DU-145 prostate) [µM]	also measured
Nc1ccc2ccc(N3CCNCC3)nc2n1	85.2 µM	> 100 µM	> 100	
O=c1c2cnccc2cc2c3ccccc3ccn12	> 100 µM	> 100 µM	> 100	
O[C@@H]1CCC[C@@H]2NC[C@@H](c3ccc4c(c3)OCO4)[C@H]12	> 100 µM	> 100 µM	> 100	
Cc1ccc(S(=O)(=O)N/N=C2\CC3CC4CCC2C4C3)cc1 (stereo unspecified)	> 100 µM	> 100 µM	> 100	
N#Cc1cc(Sc2ccc(N)c(C#N)c2)ccc1N	81 µM	27.9 µM	89.6	
CN(C)CCNC(=O)c1cccc2nc3c(C(=O)NCCN(C)C)cccc3nc12	5.66 µM	6.64 µM	12.8	
NCCCNOCCCN		> 100 µM	> 100	
CCSc1nc(=S)n(-c2ccccc2)c(C)c1C(C)=O	> 100 µM	> 100 µM	> 100	
CCOC(=O)C(Cc1ccccc1)NC(=O)c1[nH]cnc1/N=N/N(C)C (stereo unspecified)	> 100 µM	> 100 µM		TGI (DLD-1 colon): > 100 µM; TGI (DMS 114 small cell lung): > 100 µM; TGI (DMS 273 small cell lung): > 100 µM; TGI (LXFL 529 NSCLC): > 100 µM; TGI (M19-MEL melanoma): > 100 µM
CC(C)(C)NC(=O)/C(=C\Sc1ccccc1)c1ccccc1	> 100 µM	> 100 µM	> 100	
CCOC1NC(=O)Oc2cc3ccccc3cc21 (stereo unspecified)	> 100 µM	> 100 µM	> 100	
COC(=O)c1c(C)cccc1C1CN=NC12Cc1cc(C)cc(C)c1C2=O (stereo unspecified)	> 100 µM	> 100 µM	> 100	
O=c1[nH]nc(Nc2ccccc2)c2nnn(C3CCCCC3)c12			> 100	
N/C(=N\Nc1ccc(Cl)cc1)c1cnccn1	> 100 µM		> 100	
Cc1ccc(S(=O)(=O)C2=c3nc4ccccc4cc3=C3C(=O)c4ccccc4C(=O)C32)cc1 (stereo unspecified)	> 100 µM	> 100 µM		TGI (DLD-1 colon): > 100 µM; TGI (DMS 114 small cell lung): > 100 µM; TGI (DMS 273 small cell lung): > 100 µM; TGI (KM20L2 colon): > 100 µM; TGI (LXFL 529 NSCLC): > 100 µM; TGI (M19-MEL melanoma): > 100 µM; TGI (XF 498 CNS): > 100 µM
Cc1nc2ccc(F)cc2c(Cl)c1CCCl	> 100 µM	> 100 µM	> 100	
C=CCOC(OCC=C)/C(Br)=C/C	> 100 µM		> 100	
COc1c(Br)cc2ccccc2c1-c1c(OC)c(Br)cc2ccccc12	> 100 µM	> 100 µM	> 100	
COC(=O)CCNc1c2ccccc2nc2cccc([N+](=O)[O-])c12	0.0333 µM and 0.0378 µM	0.0115 µM and 0.0395 µM	19.6	GI50 (NCI-H226 lung): 0.00347 µM; GI50 (SF-539 CNS): 0.00238 µM and 0.0131 µM
